Results reported in patent US8524750B2, “(Pyrazol-3-yl)-1,3,4-thiadiazol-2-amine and (pyrazol-3-yl)-1,3,4-thiazol-2-amine compounds” (Glaxo Group Limited, priority 2009, dated 2013).
Converted amounts (≈) assume the structure as drawn. Read-outs that look alike come from different tables or passages of the source.

What was measured:
[1] = molecular target: T1, Mycobacterium tuberculosis InhA (Mycobacterium tuberculosis, UniProt P9WGR1); test: Mycobacterium tuberculosis InhA Inhibition Assay (Enzyme Assay); type: biochemical; conditions: 5 nM InhA, 50 μM DDCoA, 50 μM NADH, PIPES buffer pH 6.8, initial velocities of NADH consumption
T1 construct: made in house; host or cells: E. coli
Experimental: Mycobacterium tuberculosis InhA Inhibition Assay (Enzyme Assay)
InhA is able to reduce 2-trans enoyl-CoA esters with concomitant oxidation of NADH to NAD^+. The assay format is based on the kinetic detection of NADH consumption.
Assay for InhA inhibition is carried out with mycobacterium recombinant protein expressed and purified form E. coli. Standard assay conditions for the determination of kinetic constants and inhibitors activity use 5 nM of InhA, 50 μM of Dodecenoyl-CoA synthesized and purified as described by Quernard et al (DDCoA) and 50 μM of NADH as substrates, and it is carried out in 30 mM PIPES buffer pH 6.8, containing 0.05% of BSA. […] Triclosan is used as positive control in every experiment. One μl of compounds is added to the wells containing 25 μl of the DDCoA+NADH mix, the reaction is started by adding 50 μl of the enzyme solution. Fluorescence from NADH is followed at room temperature during 20 minutes in a fluorescent plate reader (excitation at 340 nm; emission at 480 nm). IC50 values are determined using initial velocities of NADH consumption.
Quernard A, Sacchettini J C, Dessen A, et al. Enzymatic characterization of the target for isoniazid in Mycobacterium tuberculosis. Biochemistry 1995; 34:8235-41.

[2] = test system: Mycobacterium tuberculosis H37Rv; test: Mycobacterium tuberculosis H37Rv Inhibition Assay (Whole Cell Assay); type: cell-based; conditions: ATCC 25618 / H37Rv, H37Rv strain (ATCC25618), Middlebrook 7H9, six days at 37° C., resazurin fluorescence after 48 hours

T1 sequence (P9WGR1 whole entry, looked up): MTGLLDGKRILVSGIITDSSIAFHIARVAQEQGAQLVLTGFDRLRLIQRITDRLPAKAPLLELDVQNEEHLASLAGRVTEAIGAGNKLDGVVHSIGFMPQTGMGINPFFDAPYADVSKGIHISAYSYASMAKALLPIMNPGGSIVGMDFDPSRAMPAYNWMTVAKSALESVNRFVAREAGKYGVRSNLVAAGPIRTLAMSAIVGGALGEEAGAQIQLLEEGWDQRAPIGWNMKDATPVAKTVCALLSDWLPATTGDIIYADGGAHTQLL

Compound | IC50 ([1]; read-out: IC50 value) | MIC [2] | IC50 ([1]; IC50 value)
Cc1cc(C(F)F)nn1C(C)c1nnc(Nc2ccn(Cc3ccccc3)n2)s1 (stereo not shown) [Example 43, 5-{1-[3-(difluoromethyl)-5-methyl-1H-pyrazol-1-yl]ethyl}-N-[1-(phenylmethyl)-1H-pyrazol-3-yl]-1,3,4-thiadiazol-2-amine] | < 120 nM | 4 to 10 µM (≈ 1.66 to 4.15 µg/mL) | –
Cc1ccn(C(C)c2nnc(Nc3ccn(Cc4ccccc4)n3)s2)n1 (stereo not shown) [Example 44, 5-[1-(3-methyl-1H-pyrazol-1-yl)ethyl]-N-[1-(phenylmethyl)-1H-pyrazol-3-yl]-1,3,4-thiadiazol-2-amine] | – | 1 to 4 µM (≈ 0.365 to 1.46 µg/mL) | 137 to 274 nM
Cc1cc(C(F)F)nn1Cc1nnc(Nc2ccn(Cc3ccccc3)n2)s1 [Example 45, 5-{[3-(difluoromethyl)-5-methyl-1H-pyrazol-1-yl]methyl}-N-[1-(phenylmethyl)-1H-pyrazol-3-yl]-1,3,4-thiadiazol-2-amine] | – | > 10 µM | 125 to 249 nM
Cc1cc(C(F)F)nn1Cc1nnc(Nc2ccn(Cc3ccccc3Cl)n2)s1 [Example 46, N-{1-[(2-chlorophenyl)methyl]-1H-pyrazol-3-yl}-5-{[3-(difluoromethyl)-5-methyl-1H-pyrazol-1-yl]methyl}-1,3,4-thiadiazol-2-amine] | – | > 10 µM | < 115 nM
O=[N+]([O-])c1ccn(Cc2nnc(Nc3ccn(Cc4c(Cl)cccc4Cl)n3)s2)n1 [Example 47, N-{1-[(2,6-dichlorophenyl)methyl]-1H-pyrazol-3-yl}-5-[(3-nitro-1H-pyrazol-1-yl)methyl]-1,3,4-thiadiazol-2-amine] | – | > 10 µM | < 111 nM
Cc1cc(C(F)(F)F)nn1Cc1nnc(Nc2ccn(Cc3ccccc3Cl)n2)s1 [Example 48, N-{1-[(2-chlorophenyl)methyl]-1H-pyrazol-3-yl}-5-{[5-methyl-3-(trifluoromethyl)-1H-pyrazol-1-yl]methyl}-1,3,4-thiadiazol-2-amine] | – | > 10 µM | 110 to 220 nM
O=[N+]([O-])c1ccn(Cc2nnc(Nc3ccn(Cc4ccccc4Cl)n3)s2)n1 [Example 49, N-{1-[(2-chlorophenyl)methyl]-1H-pyrazol-3-yl}-5-[(3-nitro-1H-pyrazol-1-yl)methyl]-1,3,4-thiadiazol-2-amine] | < 120 nM | > 10 µM | –
Cc1cc([N+](=O)[O-])nn1Cc1nnc(Nc2ccn(Cc3c(F)cccc3Cl)n2)s1 [Example 50, N-{1-[(2-chloro-6-fluorophenyl)methyl]-1H-pyrazol-3-yl}-5-[(5-methyl-3-nitro-1H-pyrazol-1-yl)methyl]-1,3,4-thiadiazol-2-amine] | < 111 nM | > 10 µM | –
Cc1cc(C)n(Cc2nnc(Nc3ccn(Cc4c(F)cccc4Cl)n3)s2)n1 [Example 51, N-{1-[(2-chloro-6-fluorophenyl)methyl]-1H-pyrazol-3-yl}-5-[(3,5-dimethyl-1H-pyrazol-1-yl)methyl]-1,3,4-thiadiazol-2-amine] | < 120 nM | > 10 µM | –
O=[N+]([O-])c1ccn(Cc2nnc(Nc3ccn(Cc4c(F)cccc4Cl)n3)s2)n1 [Example 52, N-{1-[(2-chloro-6-fluorophenyl)methyl]-1H-pyrazol-3-yl}-5-[(3-nitro-1H-pyrazol-1-yl)methyl]-1,3,4-thiadiazol-2-amine] | – | > 10 µM | 115 to 230 nM
Cc1cc(C)n(Cc2nnc(Nc3ccn(Cc4c(Cl)cccc4Cl)n3)s2)n1 [Example 53, N-{1-[(2,6-dichlorophenyl)methyl]-1H-pyrazol-3-yl}-5-[(3,5-dimethyl-1H-pyrazol-1-yl)methyl]-1,3,4-thiadiazol-2-amine] | < 115 nM | > 10 µM | –
Cc1ccn(C(C)c2nnc(Nc3ccn(Cc4c(Cl)cccc4Cl)n3)s2)n1 (stereo not shown) [Example 54, N-{1-[(2,6-dichlorophenyl)methyl]-1H-pyrazol-3-yl}-5-[1-(3-methyl-1H-pyrazol-1-yl)ethyl]-1,3,4-thiadiazol-2-amine] | < 115 nM | 1 to 4 µM (≈ 0.434 to 1.74 µg/mL) | –
Cc1cc(C(F)F)nn1Cc1nnc(Nc2ccn(Cc3c(F)cccc3Cl)n2)s1 [Example 55, N-{1-[(2-chloro-6-fluorophenyl)methyl]-1H-pyrazol-3-yl}-5-([3-(difluoromethyl)-5-methyl-I H-pyrazol-1-yl]methyl}-1,3,4-thiadiazol-2-amine] | < 110 nM | > 10 µM | –
Cc1cc(C)n(Cc2nnc(Nc3ccn(Cc4ccccc4Cl)n3)s2)n1 [Example 56, N-{1-[(2-chlorophenyl)methyl]-1H-pyrazol-3-yl}-5-[(3,5-dimethyl-1H-pyrazol-1-yl)methyl]-1,3,4-thiadiazol-2-amine] | < 125 nM | > 10 µM | –
Cc1ccn(Cc2nnc(Nc3ccn(Cc4c(Cl)cccc4Cl)n3)s2)n1 [Example 57, N-{1-[(2,6-dichlorophenyl)methyl]-1H-pyrazol-3-yl}-5-[(3-methyl-1H-pyrazol-1-yl)methyl]-1,3,4-thiadiazol-2-amine] | < 119 nM | > 10 µM | –
Cc1cc([N+](=O)[O-])nn1Cc1nnc(Nc2ccn(Cc3ccccc3Cl)n2)s1 [Example 58, N-{1-[(2-chlorophenyl)methyl]-1H-pyrazol-3-yl}-5-[(5-methyl-3-nitro-1H-pyrazol-1-yl)methyl]-1,3,4-thiadiazol-2-amine] | 232 to 1160 nM | > 10 µM | –
FC(F)(F)c1ccn(Cc2nnc(Nc3ccn(Cc4ccccc4Cl)n3)s2)n1 [Example 59, N-{1-[(2-chlorophenyl)methyl]-1H-pyrazol-3-yl}-5-{[3-(trifluoromethyl)-1H-pyrazol-1-yl]methyl}-1,3,4-thiadiazol-2-amine] | 227 to 1140 nM | > 10 µM | –
Cc1ccn(Cc2nnc(Nc3ccn(Cc4ccccc4)n3)s2)n1 [Example 60, 5-[(3-methyl-1H-pyrazol-1-yl)methyl]-N-[1-(phenylmethyl)-1H-pyrazol-3-yl]-1,3,4-thiadiazol-2-amine] | 285 to 1420 nM | > 10 µM | –
FC(F)(F)c1ccn(Cc2nnc(Nc3ccn(Cc4ccccc4)n3)s2)n1 [Example 61, N-[1-(phenylmethyl)-1H-pyrazol-3-yl]-5-{[3-(trifluoromethyl)-1H-pyrazol-1-yl]methyl}-1,3,4-thiadiazol-2-amine] | 247 to 1230 nM | > 10 µM | –
Cc1cc([N+](=O)[O-])nn1Cc1nnc(Nc2ccn(Cc3ccccc3)n2)s1 [Example 62, 5-[(5-methyl-3-nitro-1H-pyrazol-1-yl)methyl]-N-[1-(phenylmethyl)-1H-pyrazol-3-yl]-1,3,4-thiadiazol-2-amine] | 252 to 1260 nM | > 10 µM | –
Fc1cccc(Cl)c1Cn1ccc(Nc2nnc(Cn3ccc(C(F)(F)F)n3)s2)n1 [Example 63, N-{1-[(2-chloro-6-fluorophenyl)methyl]-1H-pyrazol-3-yl}-5-{[3-(trifluoromethyl)-1H-pyrazol-1-yl]methyl}-1,3,4-thiadiazol-2-amine] | 218 to 1090 nM | > 10 µM | –
Cc1cc(C)n(Cc2nnc(Nc3ccn(Cc4ccccc4)n3)s2)n1 [Example 64, 5-[(3,5-dimethyl-1H-pyrazol-1-yl)methyl]-N-[1-(phenylmethyl)-1H-pyrazol-3-yl]-1,3,4-thiadiazol-2-amine] | 274 to 1370 nM | > 10 µM | –
COC(C)(c1nc(C)cs1)c1nnc(Nc2ccn(Cc3c(F)cccc3Cl)n2)s1 (stereo not shown) [Example 72, N-{1-[(2-chloro-6-fluorophenyl)methyl]-1H-pyrazol-3-yl}-5-[1-(methyloxy)-1-(4-methyl-1,3-thiazol-2-yl)ethyl]-1,3,4-thiadiazol-2-amine] | < 108 nM | 1 to 4 µM (≈ 0.465 to 1.86 µg/mL) | –
